How the values were obtained:
[1] = target: T1, Cbl-b (Homo sapiens, UniProt Q13191); assay: Cbl-b inhibition assay (Cbl-b activity assay, FRET, Biological Example 1; 100 mM NaCl, 60 nM Src kinase); type: biochemical; conditions: upper bound stated in text lists; read-out: IC50 values in the Cbl-b inhibition assay of Biological Example 1
Procedure, shortened: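 Here, the E2 UbcH5B, irreversibly linked to Bodipy-fluorescein ubiquitin, binds Cbl-b once Src kinase phosphorylates it; Cbl-b carries an N-terminal biotinylated Avi-tag captured by streptavidin-terbium. An absent FRET signal indicates inhibition.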

[2] = test system: T-cell; assay: IL-2 secretion from T-cells co-stimulated with anti-CD3 and anti-CD28 antibody (Biological Example 2); type: cell-based, human; conditions: Homo sapiens, T-cell, primary human total T-cells, baseline = anti-CD3/anti-CD28 stimulated cells without inhibitor, read-out: IL-2 secretion, Anti-CD3/Anti-CD28 stimulation, fold change over baseline; for fold induction at 0.3 µM: 0.3 μM compound; for fold induction at 1 µM: 1 μM compound
Procedure, shortened: (§1)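 T-cells were stimulated with anti-CD3 antibody alone or with anti-CD28 antibody, in the presence or absence of Cbl-b inhibitor. IL-2 secretion or CD25 surface staining was measured, and values expressed as fold over the uninhibited baseline […].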

[3] = test system: T-cell; assay: CD25 cell surface staining on T-cells co-stimulated with anti-CD3 and anti-CD28 antibody (Biological Example 2); type: cell-based, human; conditions: Homo sapiens, T-cell, primary human total T-cells, baseline = anti-CD3/anti-CD28 stimulated cells without inhibitor, read-out: CD25 staining, Anti-CD3/Anti-CD28 stimulation, fold change over baseline; for fold induction at 0.3 µM: 0.3 μM compound; for fold induction at 1 µM: 1 μM compound
Procedure, shortened: as §1

[4] = target: T1, Cbl-b; assay: Cbl-b activity assay (Cbl-b inhibition assay), TR-FRET of Cbl-b interaction with UbcH5B-Ub; type: biochemical; conditions: assay buffer with 100 mM NaCl, 60 nM Src kinase; read-out: Cbl-b activity IC50
Procedure, shortened: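 UbcH5B (C85K) conjugated to N-terminally Bodipy-Fluorescein-labeled ubiquitin served as the fluorescent partner. After compound preincubation, Src kinase (60 nM) with 1 mM ATP and 5 mM MgCl2 (final) was added for 1.5 h, followed by a further 1 h incubation. Some values were obtained with 50 mM NaCl and 30 nM Src.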

[5] = test system: T-cell; assay: IL-2 secretion from T-cells stimulated with anti-CD3 antibody alone (Biological Example 2); type: cell-based; conditions: 1 μM compound, primary human total T-cells, read-out: IL-2 secretion, Anti-CD3 stimulation, fold change over baseline
[6] = test system: T-cell; assay: CD25 cell surface staining on T-cells stimulated with anti-CD3 antibody alone (Biological Example 2); type: cell-based; conditions: 1 μM compound, primary human total T-cells, baseline = anti-CD3/anti-CD28 stimulated cells without inhibitor, read-out: CD25 staining, Anti-CD3 stimulation, fold change over baseline

T1 sequence (Q13191 36-427): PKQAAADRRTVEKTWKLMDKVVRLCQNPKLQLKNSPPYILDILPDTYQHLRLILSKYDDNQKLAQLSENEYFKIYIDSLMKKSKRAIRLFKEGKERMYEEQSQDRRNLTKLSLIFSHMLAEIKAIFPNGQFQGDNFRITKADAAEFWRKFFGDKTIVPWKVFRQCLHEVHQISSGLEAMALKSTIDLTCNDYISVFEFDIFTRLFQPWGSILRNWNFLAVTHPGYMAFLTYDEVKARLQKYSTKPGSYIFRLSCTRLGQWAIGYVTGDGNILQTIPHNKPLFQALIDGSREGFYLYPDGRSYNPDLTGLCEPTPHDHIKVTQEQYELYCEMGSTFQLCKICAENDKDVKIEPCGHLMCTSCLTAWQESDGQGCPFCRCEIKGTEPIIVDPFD

Row | Compound | IC50 [1] [nM] | fold induction at 0.3 µM [2] | fold induction at 1 µM [2] | fold induction at 0.3 µM [3] | fold induction at 1 µM [3] | IC50 [4] [nM] | fold induction at 1 µM [5] | fold induction at 1 µM [6]
1 | Cn1cnnc1CC1(c2cccc(NC(=O)c3cc(CN4C[C@H]5C[C@H]5C4)cc(C4CC4)n3)c2)COC1 [Compound 498, 4-{3-azabicyclo[3.1.0]hexan-3-ylmethyl}-6-cyclopropyl-N-(3-{3-[(4-methyl-1,2,4-triazol-3-yl)methyl]oxetan-3-yl}phenyl)pyridine-2-carboxamide] | ≤ 100 | > 7.5 | > 7.5 | 1.31 to 1.5 | 1.31 to 1.5 | < 100 | > 0.201 | > 1
2 | Cn1cnnc1CC1(c2cccc(NC(=O)c3cc(CN4C[C@@H]5[C@H](C4)C5(F)F)cc(C4CC4)n3)c2)COC1 [Compound 499] | ≤ 100 | > 7.5 | > 7.5 | 1.31 to 1.5 | 1.31 to 1.5 | < 100 | > 0.201 | > 1
3 | Cc1conc1CC1(c2cccc(NC(=O)c3cc(CN4CCC5(CC5)C4)cc(C4CC4)n3)c2)COC1 [Compound 500, 4-{5-azaspiro[2.4]heptan-5-ylmethyl}-6-cyclopropyl-N-(3-{3-[(4-methyl-1,2-oxazol-3-yl)methyl]oxetan-3-yl}phenyl)pyridine-2-carboxamide] | ≤ 100 | > 7.5 | > 7.5 | 1.31 to 1.5 | 1.31 to 1.5 | < 100 | > 0.201 | > 1
4 | Cn1cnnc1CC1(c2cccc(NC(=O)c3cc(OC(F)F)cc(C4CC4)n3)c2)COC1 [Compound 502, 6-cyclopropyl-4-(difluoromethoxy)-N-(3-{3-[(4-methyl-1,2,4-triazol-3-yl)methyl]oxetan-3-yl}phenyl)pyridine-2-carboxamide] | ≤ 100 | 5 to 7.5 | > 7.5 | 1.01 to 1.3 | 1.01 to 1.3 | < 100 | > 0.201 | > 1
5 | CN(C)Cc1cc(C(=O)Nc2cccc(C3(Cc4nncn4C)COC3)c2)nc(C2CC2)n1 [Compound 503, 2-cyclopropyl-6-[(dimethylamino)methyl]-N-(3-{3-[(4-methyl-1,2,4-triazol-3-yl)methyl]oxetan-3-yl}phenyl)pyrimidine-4-carboxamide] | ≤ 100 | 2.51 to 5 | > 7.5 | 1.31 to 1.5 | 1.31 to 1.5 | < 100 | 0.101 to 0.15 | > 1
6 | Cn1cnnc1CC1(c2cccc(NC(=O)c3cc(CN4CCC4)nc(C4CC4)n3)c2)COC1 [Compound 504, 6-(azetidin-1-ylmethyl)-2-cyclopropyl-N-(3-{3-[(4-methyl-1,2,4-triazol-3-yl)methyl]oxetan-3-yl}phenyl)pyrimidine-4-carboxamide] | ≤ 100 | 2.51 to 5 | 5 to 7.5 | 1.01 to 1.3 | 1.31 to 1.5 | < 100 | 0.051 to 0.1 | 0.801 to 1
7 | Cn1cnnc1CC1(c2cccc(NC(=O)c3cc(CN4CC[C@H](O)C4)nc(C4CC4)n3)c2)COC1 [Compound 505, 2-cyclopropyl-6-{[(3S)-3-hydroxypyrrolidin-1-yl]methyl}-N-(3-{3-[(4-methyl-1,2,4-triazol-3-yl)methyl]oxetan-3-yl}phenyl)pyrimidine-4-carboxamide] | ≤ 100 | 1.01 to 2.5 | 2.51 to 5 | 1.01 to 1.3 | 1.01 to 1.3 | < 100 | 0.051 to 0.1 | 0.601 to 0.8
